One data set has as its system P. berghei sporozoites. Also noted: method as in Doggett et al., 2012; Frueh et al., 2017. The following applies: doses between 1 and 20 mg/kg, not the prodrug; ref Doggett et al., 2012; Frueh et al., 2017; cited from earlier work.
The nature of data set [1]: Kinetic solubility in PBS pH 7.4 (Chem Partners). The following applies: PBS, pH 7.4, aqueous buffer, kinetic from dmso stock. How it is done: The effects of changing R1 as 7-Et, 7-Me, 6-CF3, or 6-Me on activity against RH strain tachyzoites, kinetic solubility, and metabolic stability were compared. Kinetic solubility and metabolic stability in human or murine liver microsomes were measured. The hERG (human Ether-à-go-go-Related) liability was also determined. The hERG gene (KCNH2) encodes a protein Kv11.1, the alpha subunit of a potassium ion channel. This channel conducts the rapid component of the delayed rectifier potassium current, IKr, which is critical for repolarization of cardiac action potentials. A reduction in hERG currents from adverse drug effects can lead to long QT interval syndromes. These syndromes are characterized by action potential prolongation, lengthening of the QT interval on surface EKG, and an increased risk for “torsade de pointes” arrhythmias and sudden death. The MDCK-MDR1 Permeability Assay was also performed. MDCK-MDR1 refers to the ability of a compound to permeate across membranes of MDCK-MDR1 (Madin Darby canine kidney [MDCK] cells with the MDR1 gene [ABCB1], the gene encoding for the efflux protein, P-glycoprotein (P-gp)) in vitro. Assessing transport in both directions (apical to basolateral and basolateral to apical) across the cell monolayers enables an efflux ratio to be determined. […] This provides a prediction of blood brain barrier (BBB) penetration potential/permeability and efflux ratio. Effect in CACO-2 (Colon Adenocarcinoma cells) as a permeability assay and on cytochrome P450 (CYP 450) were also determined. CYP enzymes catalyze oxidative biotransformation (phase 1 metabolism) of most drugs. CYP enzymes, bind to membranes in a cell (cyto) and contain a heme pigment (chrome and P) that absorbs light at a wavelength of 450 nm when exposed to carbon monoxide. Metabolism of a drug by CYP enzymes is a major source of variability in drug effect. These were measured by Chem Partners. The relative effect on HFF and parasite enzymes also were compared.

In data set [2] the test system is T. gondii RH-YFP tachyzoites. Description: In vitro challenge assay, RH strain YFP tachyzoites in HFF. The conditions noted are these: Toxoplasma gondii; RH-YFP tachyzoites in HFF; Figure 1A; read-out: Tachy IC50. Format: cell-based. How it is done: RH strain YFP Tachyzoites. Protocol was adapted from Fomovska et al. ([2012a],[b]) for HFF. HFF were cultured on a flat, clear-bottomed, black 96-well plate to 90–100% confluence. IMDM (1x, [+] glutamine, [+] 25 mM HEPES, [+] Phenol red, 10% FBS [Gibco, Denmark]) was removed and replaced with IMDM-C(1x, [+] glutamine, [+] 25 mM HEPES, [–] Phenol red, 10% FBS)[Gibco, Denmark]). RH-YFP, lysed from host cells by passing twice through a 27-gauge needle, were counted, then diluted to 32,000/mL in IMDM-C. HFF were infected with 3200 RH-YFP, then returned to 37°C, CO2 (5%) incubator for 1–2 h for infection. Various concentrations of the compounds in 20 μL IMDM-C were added to each well. There were triplicates for each condition. Controls were pyrimethamine/sulfadiazine (standard treatment), 0.1% DMSO only, HFF only, and untreated cultures of HFF infected with 2-fold dilutions of YFP expressing parasites (called “YFP gradient” to establish amount of color from known numbers of YFP expressing parasites). Cells were incubated at 37°C for 72 h. Plates were read using a fluorimeter (Synergy H4 Hybrid Reader, BioTek) to ascertain amount of relative fluorescence units (RFU) YFP, to measure parasite burden after treatment. Data were collected using Gen5 software with IC50 calculated by graphical analysis in Excel.
An initial screening assay of 10 μM, 1 μM, 100 nM, and 10 nM of the compounds was performed. Compounds were not considered effective or pursued for further analysis if there was no inhibition of tachyzoites at 1 μM. If compounds were effective at 1 μM, another experiment was performed to assess effect at 1 μM, 500, 250, 125, 62.5, and 31.25 nM.

Data set [3] deals with T1, P. falciparum bc1 complex cytochrome c reductase (Pfbc1) (Plasmodium falciparum, UniProt Q02768).
T1 construct: Parasite extract was then prepared by disruption with a sonicating probe; endogenous in cells; host or cells: P. falciparum strain 3D7 blood-stage culture, sonicated parasite extract
T1 sequence (Q02768 1-376): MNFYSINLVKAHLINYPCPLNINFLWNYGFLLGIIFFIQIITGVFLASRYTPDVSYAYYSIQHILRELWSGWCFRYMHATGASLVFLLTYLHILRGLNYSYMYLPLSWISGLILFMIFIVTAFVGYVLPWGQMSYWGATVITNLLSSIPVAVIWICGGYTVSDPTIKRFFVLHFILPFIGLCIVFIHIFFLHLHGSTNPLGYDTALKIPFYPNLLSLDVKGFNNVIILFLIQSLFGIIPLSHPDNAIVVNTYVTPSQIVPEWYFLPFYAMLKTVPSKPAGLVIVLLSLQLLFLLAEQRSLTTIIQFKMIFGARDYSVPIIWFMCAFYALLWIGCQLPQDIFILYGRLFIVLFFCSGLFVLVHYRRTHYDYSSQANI
Description: Pfbc1 native assay (cytochrome c reduction by parasite extract). It counts as biochemical. The following applies: atovaquone 1 μM positive control, X ± S.D., N = 4. How it is done: P. falciparum 3D7 strain were obtained from the Liverpool School of Tropical Medicine. Protease cocktail inhibitor was obtained from Roche. Bradford protein assay dye reagent was obtained from Bio-Rad. All other reagents were obtained from Sigma-Aldrich. Decylubiquinol was produced as per Fisher et al. ([2009]). In brief, 25 mg of decylubiquinone were dissolved in 400 μL of nitrogen-saturated hexane. An equal volume of aqueous 1 M sodium dithionite was added, and the mixture vortexed until colorless. The organic phase containing the decylubiquinol was collected, the solvent was evaporated under N2 and the decylubiquinol finally dissolved in 100 μL of 96% ethanol (acidified with 10 mM HCl). Concentrations of decylubiquinol was determined spectrophotometrically on a Cary 300 Bio UV/visible spectrophotometer (Varian, UK) from absolute spectra, using ε288−−320 = 8.1 mM^−1.cm^−1. Decylubiquinol was stored at −80°C and used within 2 weeks. […]
The protocol for the preparation of parasite extract was adapted from Fisher et al. ([2009]). […] The protein concentration of the parasite extract was determined by Bradford protein assay (Bio-Rad).
P. falciparum bc1 complex cytochrome c reductase (Pfbc1) activity was measured by monitoring cytochrome c reduction at 550 vs. 542 nm using a Cary 300 Bio UV-Visible Spectrophotometer (Varian, UK), using a protocol adapted from Fisher et al. ([2009]). […]

Converted amounts (≈) assume the structure as drawn.

Turning to `COc1cc2[nH]c(C)c(-c3ccc(Oc4ccc(OC(F)(F)F)cc4)cc3)c(=O)c2cc1Cl` [ELQ 300], the “efficacy in the in vivo malaria model” value in the data set on P. berghei sporozoites is “not effective”.

`O=c1c2c([nH]c(CO)c1-c1ccc(Oc3ccc(OC(F)(F)F)cc3)cc1)CCCC2` [JAG099]: the solubility (kinetic) in data set [1] turned out to be 4.05 µM (≈ 1.75 µg/mL). The IC50 in data set [2] was found to be 380 nM. This molecule also yielded an inhibition at 1 µM in data set [3] of 81.3 ± 6%.

As usually defined, the solubility (kinetic) is solubility judged after dilution from a stock solution rather than from solid. In general, IC50 refers to the concentration that gives 50% inhibition. As a reminder, the inhibition is the relative decrease from the control value, in per cent. Read a high inhibition as a strong effect.

Values taken from article PMC7311950, “Potent Tetrahydroquinolone Eliminates Apicomplexan Parasites” (Frontiers in Cellular and Infection Microbiology, 2020).
